This data set relates to Mg-63 cells. The data set is described as follows: LDH cytotoxicity assay (LDH release as marker of dead cells). Format: cell-based. As to conditions: control group = 100%, aloe vera extract 5% (v/v), SDKP about 75 micrograms per milliliter, Fingolimod hydrochloride about 10 nanogram per milliliter, FIG. 3. How it is done:
In some cases, lactate dehydrogenase (LDH) assays can be performed by assessing or measuring the LDH released into the media as a marker of dead cells. In this example, biocompatibility and cytotoxicity of the injectable scaffold of the present disclosure as a whole and its components were measured by an LDH cytotoxicity assay as follows.
Mg-63 cell line was the source of osteoblast cells in the following assays. Six test groups and one control group of Mg-63 cells were prepared for investigating the cytotoxicity effects of the present injectable scaffold and its components. FIG. 3 illustrates the data of LDH release from Mg-63 cells of six test groups and one control group. […]

As to `C[C@H](NC(=O)[C@H](CC(=O)O)NC(=O)[C@H](C)NC(=O)[C@H](CCCNC(=N)N)NC(=O)[C@H](C)NC(=O)[C@H](CC(=O)O)NC(=O)[C@H](C)NC(=O)[C@H](CCCNC(=N)N)NC(=O)[C@H](C)NC(=O)[C@H](CC(=O)O)NC(=O)[C@H](C)NC(=O)[C@H](CCCNC(=N)N)NC(=O)[C@H](C)NC(=O)[C@H](CC(=O)O)NC(=O)[C@H](C)NC(=O)[C@@H](N)CCCNC(=N)N)C(=O)O` [R], the LDH release entry was “about 62.35%”.

These data come from US10485895B2, “Self-assembling peptide scaffolds” (CELLULAR AND MOLECULAR RESEARCH CENTER, IRAN UNIVERSITY OF …, priority 2016, dated 2019).
